Measurements published in patent US12077503B2, “Substituted cyclic amides and their use as herbicides” (FMC CORPORATION, priority 2015, dated 2024).

Row | melting point [°C] | SMILES
1 | 97 to 101 | Cc1cc([C@H]2CN(C)C(=O)[C@@H]2C(=O)Nc2cccc(F)c2F)no1 [Compound 1237]
2 | 192 to 196 | O=C1NC[C@H](c2ccc(C(F)(F)F)cn2)[C@H]1C(=O)Nc1cccc(F)c1F [Compound 1104]
3 | 107.5 to 115.4 | CC(O)c1ccccc1NC(=O)C1C(=O)N(C)CC1c1cccc(C(F)(F)F)c1 (stereo not shown) [Compound 1147]
4 | 136 to 140 | CC(C)=CC1CNC(=O)C1C(=O)Nc1ccccc1F (stereo not shown) [Compound 1011]
